Consider two compounds from patent US20040006784A1, “Methods and compositions for producing plants and microorganisms that express feedback insensitive threonine dehydratase/deaminase” (priority 1997, published 2004).

For test [1], the target named is T1, threonine dehydratase/deaminase (TD) (Arabidopsis thaliana, UniProt Q9ZSS6, R499C/R544H).
T1 construct: from tissue; host or cells: extracts of Arabidopsis thaliana GM11b (omr1/omr1) plants
The following applies: extracts from GM11b (omr1/omr1) plants compared with wild type plants; Mourad and King 1995; cited from earlier work.

In test [2] the test system is Arabidopsis thaliana Columbia wild type. The following applies: agar medium; Mourad and King, 1995; cited from earlier work.
Test [3] relates to manmalian cell cultures. The following applies: by inhibiting incorporation of Ile into proteins; Rabinovitz et al. 1955; cited from earlier work.
Test [4] relates to E. coli prototroph host DH5α. The test can be described thus: Growth of E. coli DH5α on minimal medium supplemented with L-O-methylthreonine (second complementation experiment). The test is classed as cell-based. On the procedure:
In the second complementation experiment, the E. coli prototroph host DH5α was transformed with pTrc-td23 or pUCK-td23 and plated on minimal medium supplemented with varying concentrations of the toxic analog L-O-methylthreonine. Both of the constructs were able to confer upon DH5α resistance to 30 μM L-O-methylthreonine. […] Therefore omr1 provides a new environmentally friendly selectable marker for genetic transformation of bacteria.

Test [5] deals with T2 seedlings of omr1 transgenic Arabidopsis. Nature of the test: T2 seedlings of omr1 transformants on L-O-methylthreonine agar medium. The test is classed as in vivo, Arabidopsis thaliana. The settings on record: 0.2 mM L-O-methylthreonine agar medium, 50 T2 seeds/transformant, each of 5 plates. As for the experimental part:
The T2 seed was harvested from each of the 5 positive T1 transformants and 50 T2 seeds/transformant were planted in a separate petri plate containing 0.2 mM L-O-methylthreonine agar medium. […] This slightly truncated precursor mutant TD was able to translocate to the chloroplast and confer upon transgenic plants resistance to OMT.

Test [6] concerns Arabidopsis thaliana Columbia wild type. Nature of the test: Germination and growth of seedlings in agar medium supplemented with L-O-methylthreonine. The test is classed as in vivo. The settings on record: 0.2 mM L-O-methylthreonine agar medium, T1 seed screen. The text has this:
Using the vacuum infiltration method of Bent et al. (1994), L-O-methylthreonine-sensitive Arabidopsis thaliana Columbia wild type were transformed with pCM35S-omr1. Ten pots, each with 3-4 plants, were transformed and T1 seeds were harvested from the To transformed plants of each pot separately. […] In a crowded plate, it is possible to identify the transformants by looking at the bottom of the plate, the transformants show root growth while the nontransformants will have none. After three weeks of growth in the 0.2 mM L-O-methylthreonine agar medium, each of the 5 positive transformants was transferred to soil, kept separately and allowed to self-fertilize to produce the T2 seed.

T1 sequence (Q9ZSS6 92-592 R499C/R544H): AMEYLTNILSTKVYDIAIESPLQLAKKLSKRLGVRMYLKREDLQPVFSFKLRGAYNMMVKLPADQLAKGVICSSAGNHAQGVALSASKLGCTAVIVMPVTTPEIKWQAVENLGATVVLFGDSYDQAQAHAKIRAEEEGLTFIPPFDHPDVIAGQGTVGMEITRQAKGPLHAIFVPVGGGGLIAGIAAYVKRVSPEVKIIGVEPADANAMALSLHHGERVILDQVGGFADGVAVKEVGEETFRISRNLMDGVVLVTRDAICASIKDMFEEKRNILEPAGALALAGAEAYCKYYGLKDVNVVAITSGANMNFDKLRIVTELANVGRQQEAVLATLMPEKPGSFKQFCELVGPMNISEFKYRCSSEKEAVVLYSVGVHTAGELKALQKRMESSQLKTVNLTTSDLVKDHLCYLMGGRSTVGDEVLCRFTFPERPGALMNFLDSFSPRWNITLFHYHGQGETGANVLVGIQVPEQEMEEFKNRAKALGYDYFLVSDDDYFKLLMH

Take `CC[C@H](C)[C@H](N)C(=O)O` [Ile, isoleucine]: in test [1], the “resistance of TD activity to feedback inhibition by Ile, GM11b extracts versus wild type extracts” value is reported as “about 50 fold”.

On to `CO[C@H](C)[C@H](N)C(=O)O` [L-O-methylthreonine], for which the “concentration known to completely inhibit the growth of wild type seedlings beyond the cotyledonous stage” value in test [2] is 0.2 mM. Further, the “effect on growth of mammalian cell cultures” value in test [3] was “inhibits growth”. In addition, the “L-O-methylthreonine concentration to which resistance was conferred” value in test [4] (DH5α transformed with pTrc-td23 or pUCK-td23 (omr1), minimal medium) stood at 30 µM. For the same compound, the “growth of bacterial colonies on plates with L-O-methylthreonine” value in test [4] (untransformed DH5α, minimal medium supplemented with varying concentrations of L-O-methylthreonine) was “No bacterial colonies grew”. For the same compound, the “T2 seedlings resistant to L-O-methylthreonine” value in test [5] is listed as at least 75%. In test [6], the “appearance of nontransformed seedlings after emergence of the cotyledons” value is “completely bleached”.
